Experimental data: patent US9783536B2, “Nitrogen-containing heterocyclic compound or salt thereof” (FUJIFILM Corporation, priority 2013, dated 2017)
Like-named read-outs stand apart in the source and are kept apart here.

Columns and labels:
Assay type in all cases: biochemical
human PI3Kα protein = molecular target: T1, human PI3Kα protein (Homo sapiens, UniProt P42336); test: PI3Kα enzyme assay (ADP-Glo); conditions: read-out: PI3Kα enzyme inhibitory activity
T1 construct: purchased Carna Biosciences, Inc; host or cells: baculovirus expression system
T1 sequence (P42336 whole entry): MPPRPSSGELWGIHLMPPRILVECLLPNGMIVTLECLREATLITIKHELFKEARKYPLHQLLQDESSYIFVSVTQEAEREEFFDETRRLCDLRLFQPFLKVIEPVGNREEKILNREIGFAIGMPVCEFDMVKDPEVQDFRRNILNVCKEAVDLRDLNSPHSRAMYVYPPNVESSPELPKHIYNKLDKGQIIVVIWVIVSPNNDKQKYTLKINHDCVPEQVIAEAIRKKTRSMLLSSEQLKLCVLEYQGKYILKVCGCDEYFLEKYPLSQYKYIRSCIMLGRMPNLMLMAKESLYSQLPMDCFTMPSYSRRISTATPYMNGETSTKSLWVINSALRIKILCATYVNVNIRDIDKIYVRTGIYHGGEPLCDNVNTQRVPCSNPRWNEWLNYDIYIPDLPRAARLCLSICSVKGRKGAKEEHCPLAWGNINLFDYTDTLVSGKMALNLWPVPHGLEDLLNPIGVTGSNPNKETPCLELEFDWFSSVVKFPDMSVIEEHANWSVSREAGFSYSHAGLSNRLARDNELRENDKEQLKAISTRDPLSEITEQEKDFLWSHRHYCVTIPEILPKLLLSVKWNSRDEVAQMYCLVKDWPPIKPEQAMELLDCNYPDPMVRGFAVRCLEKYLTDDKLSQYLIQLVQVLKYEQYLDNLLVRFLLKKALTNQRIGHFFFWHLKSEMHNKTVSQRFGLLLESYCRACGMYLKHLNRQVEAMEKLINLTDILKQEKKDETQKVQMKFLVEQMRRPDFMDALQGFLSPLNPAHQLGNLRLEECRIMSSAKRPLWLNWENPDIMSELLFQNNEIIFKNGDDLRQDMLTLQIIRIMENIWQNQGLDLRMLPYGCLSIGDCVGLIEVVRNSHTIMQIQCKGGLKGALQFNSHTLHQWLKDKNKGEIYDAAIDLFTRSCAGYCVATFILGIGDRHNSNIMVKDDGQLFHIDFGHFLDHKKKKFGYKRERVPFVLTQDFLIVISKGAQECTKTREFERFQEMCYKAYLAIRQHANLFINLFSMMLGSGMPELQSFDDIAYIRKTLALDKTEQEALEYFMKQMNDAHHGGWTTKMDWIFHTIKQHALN
T1 sequence (P27986 whole entry partner): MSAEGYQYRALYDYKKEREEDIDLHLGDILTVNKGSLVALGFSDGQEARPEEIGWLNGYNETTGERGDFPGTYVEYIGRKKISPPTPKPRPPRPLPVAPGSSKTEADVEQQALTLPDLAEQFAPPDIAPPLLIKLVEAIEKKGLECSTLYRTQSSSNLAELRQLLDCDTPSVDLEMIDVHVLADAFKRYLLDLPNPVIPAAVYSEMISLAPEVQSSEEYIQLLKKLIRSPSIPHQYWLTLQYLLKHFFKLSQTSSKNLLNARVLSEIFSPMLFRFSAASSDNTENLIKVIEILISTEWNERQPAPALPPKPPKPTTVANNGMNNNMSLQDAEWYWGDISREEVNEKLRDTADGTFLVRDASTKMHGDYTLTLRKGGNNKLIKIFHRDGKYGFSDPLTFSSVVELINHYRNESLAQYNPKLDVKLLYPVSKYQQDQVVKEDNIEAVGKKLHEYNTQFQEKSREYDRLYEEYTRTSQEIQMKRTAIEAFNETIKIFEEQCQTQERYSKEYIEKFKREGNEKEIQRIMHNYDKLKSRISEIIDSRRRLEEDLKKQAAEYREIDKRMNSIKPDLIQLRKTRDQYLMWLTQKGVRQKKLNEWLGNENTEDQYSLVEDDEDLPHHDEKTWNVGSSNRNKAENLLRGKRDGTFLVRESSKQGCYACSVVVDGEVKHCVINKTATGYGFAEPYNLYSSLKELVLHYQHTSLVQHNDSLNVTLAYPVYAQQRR
Method in brief: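 Biotinylated human PI3Kα (baculovirus-expressed, 4.5 nmol/L) pre-incubated 15 min with compound in Tris-HCl pH 7.5, MgCl2, BSA; reaction 60 min at 25° C with 50 μmol/L PIP2 and 100 μmol/L ATP final. ADP quantified by ADP-Glo luminescence; IC50 calculated.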

[1] = molecular target: T2, GST fusion human ERK2 protein (Homo sapiens, UniProt P28482); test: ERK2 enzyme assay (1); conditions: read-out: ERK2 enzyme inhibitory activity (1)
T2 construct: purchased Carna Biosciences, Inc; host or cells: E. coli expression system
T2 sequence (P28482 whole entry, the tested form may be a part): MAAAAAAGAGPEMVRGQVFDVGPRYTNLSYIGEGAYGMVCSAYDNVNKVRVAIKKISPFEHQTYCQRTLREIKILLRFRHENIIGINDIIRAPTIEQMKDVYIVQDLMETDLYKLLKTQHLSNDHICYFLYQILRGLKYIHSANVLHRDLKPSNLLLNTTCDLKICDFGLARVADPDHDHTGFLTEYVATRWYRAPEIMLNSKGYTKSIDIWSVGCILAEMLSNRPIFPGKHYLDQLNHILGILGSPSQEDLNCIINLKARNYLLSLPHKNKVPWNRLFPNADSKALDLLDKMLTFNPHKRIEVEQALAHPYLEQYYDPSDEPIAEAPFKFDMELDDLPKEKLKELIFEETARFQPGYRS
Method in brief: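 IC50 derived from the proportion of phosphorylated 5-FAM peptide, separated from unphosphorylated peptide by microfluidic mobility shift. Compound was first preincubated 15 min at room temperature with 2.5 nmol/L kinase at pH 7.5, then 43.1 μmol/L ATP plus 4.25 μmol/L substrate reacted 120 min at 25 °C.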

[2] = molecular target: T2, GST fusion human ERK2 protein; test: ERK2 enzyme assay (2); conditions: read-out: ERK2 enzyme inhibitory activity (2)
Method in brief: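 IC50 values come from mobility-shift measurement of phosphorylated versus unphosphorylated 5-FAM peptide substrate after EDTA quench. Beforehand, compound and 1.25 nmol/L E. coli-expressed GST–human ERK2 stood 15 min at room temperature (pH 7.5), then 1 mmol/L ATP and 4.25 μmol/L substrate (final) were added for 120 min at 25 °C.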

[3] = 4.5 nmol/L PI3Kα, PIP2 50 μmol/L, ATP 100 μmol/L
[4] = 2.5 nmol/L ERK2, ATP 43.1 μmol/L

Structure (SMILES)	IC50 (human PI3Kα protein; [3])	IC50 [1, 4]	IC50 ([2]; 1.25 nmol/L ERK2, ATP 1 mmol/L)	IC50 ([1]; ERK2 enzyme assay (1))	IC50 ([2]; ERK2 enzyme assay (2))	IC50 (human PI3Kα protein)
CC(C)c1cnnc(Nc2ccc3ncc(-c4cnn(C)c4)nc3n2)c1 [Example 0014, N-(5-isopropylpyridazin-3-yl)-3-(1-methyl-1H-pyrazol-4-yl)pyrido[2,3-b]pyrazine-6-amine]	< 1000 nM	< 1000 nM	< 1000 nM	–	–	–
c1nc2ccc(Nc3cc(C4CCCC4)cnn3)nc2cc1-c1cnn(CCCN2CCCC2)c1 [Example 0016]	< 1000 nM	< 1000 nM	< 1000 nM	–	–	–
c1nc2ccc(Nc3cc(C4CCCCC4)cnn3)nc2cc1-c1cnn(CCCN2CCCC2)c1 [Example 0017]	< 1000 nM	< 1000 nM	< 1000 nM	–	–	–
CC(C)c1cnnc(Nc2ccc3ncc(-c4cnn(CCCN5CCN(C)CC5)c4)cc3n2)c1 [Example 0021, N-(5-isopropylpyridazin-3-yl)-7-(1-(3-(4-methylpiperazin-1-yl)propyl)-1H-pyrazol-4-yl)-1,5-naphthyridine-2-amine]	< 1000 nM	< 1000 nM	< 1000 nM	–	–	–
C[Si](C)(C)CCOCn1cc(-c2cnc3ccc(Nc4nncs4)nc3c2)cn1 [Example 0025, N-(7-(1-((2-(trimethylsilyl)ethoxy)methyl)-1H-pyrazol-4-yl)-1,5-naphthyridin-2-yl)-1,3,4-thiadiazole-2-amine]	1000 to 10000 nM	< 1000 nM	< 1000 nM	–	–	–
Cn1cc(-c2cnc3ccc(Nc4nncs4)nc3c2)cn1 [Example 0026, N-(7-(1-methyl-1H-pyrazol-4-yl)-1,5-naphthyridin-2-yl)-1,3,4-thiadiazole-2-amine]	< 1000 nM	< 1000 nM	< 1000 nM	–	–	–
c1cnc2[nH]cc(-c3cnc4ccc(Nc5nnc(C6CCCC6)s5)nc4c3)c2c1 [Example 0111]	–	< 1000 nM	< 1000 nM	–	–	–
Cn1cc(-c2cnc3ccc(Nc4nnc(C5CCCC5)s4)nc3c2)c2cccnc21 [Example 0113]	–	< 1000 nM	< 1000 nM	–	–	–
CCCc1nnc(Nc2ccc3ncc(-c4cnn(C)c4)cc3n2)s1 [Example 0169, N-(7-(1-methyl-1H-pyrazol-4-yl)-1,5-naphthyridin-2-yl)-5-propyl-1,3,4-thiadiazole-2-amine]	–	< 1000 nM	< 1000 nM	–	–	–
Cn1cc(-c2cnc3ccc(Nc4nnc(C5CCCCC5)s4)nc3c2)cn1 [Example 0217, 5-Cyclohexyl-N-(7-(1-methyl-1H-pyrazol-4-yl)-1,5-naphthyridin-2-yl)-1,3,4-thiadiazole-2-amine]	–	–	–	< 1000 nM	< 1000 nM	–
Cn1cc(-c2cc3nc(Nc4nnc(C5CCCC5)s4)ccc3nc2Cl)cn1 [Example 0349, N-(6-chloro-7-(1-methyl-1H-pyrazol-4-yl)-1,5-naphthyridin-2-yl)-5-cyclopentyl-1,3,4-thiadiazole-2-amine]	–	–	–	< 1000 nM	1000 to 10000 nM	–
CCOc1nc2ccc(Nc3nnc(C4CCCC4)s3)nc2cc1-c1cnn(C)c1 [Example 0357, 5-Cyclopentyl-N-(6-ethoxy-7-(1-methyl-1H-pyrazol-4-yl)-1,5-naphthyridin-2-yl)-1,3,4-thiadiazole-2-amine]	–	–	–	1000 to 10000 nM	1000 to 10000 nM	–
CC(C)c1cnnc(Nc2ccc3ncc(-c4cnn(CCCN5CCCC(C#N)C5)c4)cc3n2)c1 (stereo not drawn) [Example 0379, 1-(3-(4-(6-((5-Isopropylpyridazin-3-yl)amino)-1,5-naphthyridin-3-yl)-1H-pyrazol-1-yl)propyl)piperidine-3-carbonitrile]	–	–	–	< 1000 nM	–	< 1000 nM
CC(C)c1cnnc(Nc2ccc3ncc(-c4cnn(CCn5ccnc5)c4)cc3n2)c1 [Example 0380, 7-(1-(2-(1H-imidazol-1-yl)ethyl)-1H-pyrazol-4-yl)-N-(5-isopropylpyridazin-3-yl)-1,5-naphthyridine-2-amine]	–	–	–	< 1000 nM	–	< 1000 nM
CC(C)c1cnnc(Nc2ccc3ncc(-c4cnn(Cc5ccncc5)c4)cc3n2)c1 [Example 0381]	–	–	–	< 1000 nM	–	< 1000 nM
CCc1nn(CCCN2CCOCC2)cc1-c1cnc2ccc(Nc3cc(C(C)C)cnn3)nc2c1 [Example 0385, 7-(3-ethyl-1-(3-morpholinopropyl)-1H-pyrazol-4-yl)-N-(5-isopropylpyridazin-3-yl)-1,5-naphthyridine-2-amine]	–	–	–	< 1000 nM	–	< 1000 nM
CC(C)c1cnnc(Nc2ccc3ncc(-c4cn(C)nc4CO[Si](C)(C)C(C)(C)C)cc3n2)c1 [Example 0393, 7-(3-(((tert-butyldimethylsilyl)oxy)methyl)-1-methyl-1H-pyrazol-4-yl)-N-(5-isopropylpyridazin-3-yl)-1,5-naphthyridine-2-amine]	–	–	–	< 1000 nM	–	1000 to 10000 nM
Cc1cnnc(Nc2ccc3ncc(-c4cn(C)nc4CO[Si](C)(C)C(C)(C)C)cc3n2)c1 [Example 0396, 7-(3-(((tert-butyldimethylsilyl)oxy)methyl)-1-methyl-1H-pyrazol-4-yl)-N-(5-methylpyridazin-3-yl)-1,5-naphthyridine-2-amine]	–	–	–	< 1000 nM	–	10000 to 50000 nM

Next, values leading:

IC50 (human PI3Kα protein; [3])	IC50 [1, 4]	IC50 ([2]; 1.25 nmol/L ERK2, ATP 1 mmol/L)	IC50 ([1]; ERK2 enzyme assay (1))	IC50 ([2]; ERK2 enzyme assay (2))	IC50 (human PI3Kα protein)	Structure (SMILES)
–	–	–	< 1000 nM	–	< 1000 nM	CCc1nn(CCCN2CCCC2)cc1-c1cnc2ccc(Nc3cc(C(C)C)cnn3)nc2c1 [Example 0386, 7-(3-ethyl-1-(3-(pyrrolidin-1-yl)propyl)-1H-pyrazol-4-yl)-N-(5-isopropylpyridazin-3-yl)-1,5-naphthyridine-2-amine]
–	–	–	< 1000 nM	–	< 1000 nM	CC(C)c1cnnc(Nc2ccc3ncc(Nc4cncnc4)cc3n2)c1 [Example 0387, N^2-(5-isopropylpyridazin-3-yl)-N^7-(pyrimidin-5-yl)-1,5-naphthyridine-2,7-diamine]
–	–	–	< 1000 nM	–	1000 to 10000 nM	Cc1cnnc(Nc2ccc3ncc(Nc4cncnc4)cc3n2)c1 [Example 0388, N^2-(5-methylpyridazin-3-yl)-N^7-(pyrimidin-5-yl)-1,5-naphthyridine-2,7-diamine]
–	–	–	< 1000 nM	–	< 1000 nM	COCCc1nn(C)cc1-c1cnc2ccc(Nc3nnc(C(C)C)s3)nc2c1 [Example 0389, 5-isopropyl-N-(7-(3-(2-methoxyethyl)-1-methyl-1H-pyrazol-4-yl)-1,5-naphthyridin-2-yl)-1,3,4-thiadiazole-2-amine]
–	–	–	< 1000 nM	–	< 1000 nM	CCCc1nn(CCCN2CCCC2)cc1-c1cnc2ccc(Nc3cc(C(C)C)cnn3)nc2c1 [Example 0391, N-(5-isopropylpyridazin-3-yl)-7-(3-propyl-1-(3-(pyrrolidin-1-yl)propyl)-1H-pyrazol-4-yl)-1,5-naphthyridine-2-amine]
–	–	–	< 1000 nM	–	< 1000 nM	CC(C)c1cnnc(Nc2ccc3ncc(N4CCOCC4)cc3n2)c1 [Example 0392, N-(5-isopropylpyridazin-3-yl)-7-morpholino-1,5-naphthyridine-2-amine]
–	–	–	< 1000 nM	–	< 1000 nM	CC(C)c1cnnc(Nc2ccc3ncc(-c4cn(C)nc4CO)cc3n2)c1 [Example 0394, (4-(6-((5-isopropylpyridazin-3-yl)amino)-1,5-naphthyridin-3-yl)-1-methyl-1H-pyrazol-3-yl)methanol]
–	–	–	< 1000 nM	–	< 1000 nM	Cc1cnnc(Nc2ccc3ncc(-c4cn(C)nc4CO)cc3n2)c1 [Example 0397, (1-methyl-4-(6-((5-methylpyridazin-3-yl)amino)-1,5-naphthyridin-3-yl)-1H-pyrazol-3-yl)methanol]
–	–	–	< 1000 nM	–	< 1000 nM	CC(C)c1cnnc(Nc2ccc3ncc(-c4cnn(-c5cccnc5)c4)cc3n2)c1 [Example 0398, N-(5-isopropylpyridazin-3-yl)-7-(1-(pyridin-3-yl)-1H-pyrazol-4-yl)-1,5-naphthyridine-2-amine]
–	–	–	< 1000 nM	–	1000 to 10000 nM	CC(C)c1cnnc(Nc2ccc3ncc(-c4cnn(-c5ccncc5)c4)cc3n2)c1 [Example 0399, N-(5-isopropylpyridazin-3-yl)-7-(1-(pyridin-4-yl)-1H-pyrazol-4-yl)-1,5-naphthyridine-2-amine]
–	–	–	< 1000 nM	–	< 1000 nM	CC(=O)OCC(C)(C)c1cnnc(Nc2ccc3ncc(-c4cnn(CCCN5CCCC5)c4)cc3n2)c1 [Example 0404, 2-Methyl-2-(6-((7-(1-(3-(pyrrolidin-1-yl)propyl)-1H-pyrazol-4-yl)-1,5-naphthyridin-2-yl)amino)pyridazin-4-yl)propyl acetate]
–	–	–	< 1000 nM	–	1000 to 10000 nM	CC(C)c1cnnc(Nc2ccc3ncc(-c4cccnc4)cc3n2)c1 [Example 0407]
–	–	–	1000 to 10000 nM	–	< 1000 nM	Cn1cc(-c2cnc3ccc(Nc4ccc(NS(C)(=O)=O)nn4)nc3c2)cn1 [Example 0409]
–	–	–	< 1000 nM	–	< 1000 nM	CC(C)c1nnc(Nc2ccc3ncc(-c4cnn(C)c4-c4cnn(C)c4)cc3n2)s1 [Example 0476, N-(7-(1′,2-dimethyl-1′H,2H-[3,4′-bipyrazole]-4-yl)-1,5-naphthyridin-2-yl)-5-isopropyl-1,3,4-thiadiazole-2-amine]
–	–	–	< 1000 nM	–	< 1000 nM	CC(C)c1nnc(Nc2ccc3ncc(-c4cn(C)nc4-c4cnn(C)c4)cc3n2)s1 [Example 0477]
